Measured values published in patent US7772258B2, “Agent for treatment of allergic eye disease” (Nikken Chemicals Co., Ltd., priority 2001, dated 2010).

Test system: Allergic Conjunctivitis Model
Experiment: Alleviating action for allergic conjunctivitis model (Itch-Scratch response after OA challenge)
Type: in vivo
Settings: OA-sensitized Wistar rats; positive control 0.3 w/v % suspension in physiological saline dropped into the eyes 10 minutes before OA challenge; scratching counted over 20 minutes after OA
Procedure: or the experiment, Wistar rats (CLEA Japan) were used. The rats were sensitized by intraperitoneal administration of ovalbumin (OA, made by Sigma) in an amount of 100 μg and 10 mg of aluminum hydroxide (Alum, made by Pierce Co.) suspended in 1 mL of physiological saline. Allergic conjunctivitis was induced using rats after 3 weeks from the date of sensitization by dropping into the eyes of 10 μg OA solution prepared by physiological saline to a concentration of 30 mg/mL. The medicine was suspended at a concentration of 1.0 w/v % in physiological saline and dropped into the eyes 10 minutes before OA challenge to induce conjunctivitis (as a positive control drug, diphenhydramine suspended in a concentration of 0.3 w/v % in physiological saline was dropped in the eyes 10 minutes before OA challenge to induce conjunctivitis). For the effect of the compound, the number of times of the action of using the hind legs to scratch the eye area (Itch-Scratch response; considered to be an indicator of itchiness) observed in the 20-minute period after dropping the OA was counted and used to find the rate of inhibition of itchiness by the following formula: Control group: presensitized rats in whose eyes physiological saline is dropped 10 minutes before using OA to induce conjunctivitis Untreated group: unsensitized rats in whose eyes physiological saline is dropped. Calculation Formula: Inhibition rate(%)=100−(test substance group−untreated group/(control group−untreated group)×100

Structure (SMILES) | Inhibition rate (%) of Itch-Scratch response
CN(C)CCOC(c1ccccc1)c1ccccc1 [Diphenhydramine, diphenhydramine, reference compound] | 64.6%

Same assay, conditions: OA-sensitized Wistar rats; test substance 1.0 w/v % suspension in physiological saline dropped into the eyes 10 minutes before OA challenge; scratching counted over 20 minutes after OA

Structure (SMILES) | Inhibition rate (%) of Itch-Scratch response
COc1ccc(N(Cc2ccc3ccccc3c2)C2=CC(=O)CC2)cc1OC1CCCC1 [Compound 1, 3-[3-cyclopentyloxy-4-methoxy-N-(2-naphthylmethyl)anilino]-2-cyclopenten-1-one] | 82.7%
COc1ccc(NC2=C(C)C(=O)CC2)cc1O[C@@H]1C[C@H]2CC[C@@H]1C2 (racemic) [Compound 2, 3-[3-[(1RS,2RS,4SR)-bicyclo[2.2.1]hept-2-yloxy]-4-methoxyanilino]-2-methyl-2-cyclopenten-1-one] | 62.9%
COc1ccc(NC2=C(C)C(=O)CC2)cc1O[C@@H]1C[C@H]2CC[C@@H]1C2 [Compound 4, (−)-3-[3-[(1R,2R,4S)-bicyclo[2.2.1]hept-2-yloxy]-4-methoxyanilino]-2-methyl-2-cyclopenten-1-one] | 68.6%
CCC1=C(Nc2ccc(OC)c(O[C@@H]3C[C@H]4CC[C@@H]3C4)c2)CCC1=O (racemic) [Compound 3, 3-[3-[(1RS,2RS,4SR)-bicyclo[2.2.1]hept-2-yloxy]-4-methoxyanilino]-2-ethyl-2-cyclopenten-1-one] | 63.5%
COc1ccc(NC2=C(C)C(=O)CC2)cc1O[C@H]1C[C@@H]2CC[C@H]1C2 [Compound 5, (+)-3-[3-[(1S,2S,4R)-bicyclo[2.2.1]hept-2-yloxy]-4-methoxyanilino]-2-methyl-2-cyclopenten-1-one] | 97.1%
